One may read the IC50 as the concentration needed to halve the response being measured. One may read the inhibition as the drop in the measured response relative to a control, in per cent.

Holding throughout (format): functional
Assay [1] is filed under the species Mus musculus. Briefly: Inhibitory concentration on nitric oxide production in lipopolysaccharide-activated mouse peritoneal macrophages.
The species entered for assay [2] is Mus musculus. Briefly: Inhibitory effect on nitric oxide production in lipopolysaccharide activated mouse peritoneal macrophages at 3 uM.
Assay [3] is filed under the species Mus musculus. In words: Inhibitory effect on nitric oxide production in lipopolysaccharide activated mouse peritoneal macrophages at 10 uM.

`C[C@@]12CCC(=O)C=C1[C@](C)(O)[C@H](O)CC2` [OXYPHYLLENONE B] showed an IC50 in assay [1] of more than 100 µM. In assay [2], the inhibition at 3 µM is -8.1%. Further, the inhibition at 10 µM in assay [3] is 0.4%.

On to `CNC(=N)NCCC[C@H](N)C(=O)O` [TILARGININE], for which, in assay [2], the inhibition at 3 µM stood at 2%.

As for `C[C@@]12CCC(=O)C=C1[C@@](C)(O)[C@H](O)CC2` [OXYPHYLLENONE A], the IC50 in assay [1] worked out at 35 µM. Besides, the inhibition at 3 µM in assay [2] worked out at 1.6%. For the same compound, in assay [3], the inhibition at 10 µM was -2.9%.

As to `CC(C)[C@H]1CCC(=O)C2=C1[C@H](O)[C@](C)(O)CC2` [OXYPHYLLENODIOL B], in assay [1], the IC50 is more than 100 µM. Also, in assay [2], the inhibition at 3 µM is -4.2%. The inhibition at 10 µM in assay [3] was -0.4%.

Turning to `CC(C)[C@@H]1CCC(=O)C2=C1[C@H](O)[C@](C)(O)CC2` [OXYPHYLLENODIOL A], it took 28 µM to reach half-maximal inhibition in assay [1] (IC50). For the same compound, the inhibition at 3 µM in assay [2] came to 11.8%.
